# According to patent publication US4487777A (priority 1981, dated 1984):
# Assays:
# [1] = test system: Phytophthora infestans conidia; test: whole plant or invertebrate; assay type: in vivo; conditions: in Solanum lycopersicum, 168 h, read-out: % Control TLB (Tomato Late Blight)
# [2] = test system: Septoria apii; assay type: in vivo; conditions: celery (Utah) plants; % disease reduction relative to untreated check plants; concentration not given
# [3] = test system: Alternaria solani conidia; test: Tomato Early Blight control (tomato seedlings, sprayed then inoculated); assay type: in vivo; conditions: 288 h, 250-ppm solution, tomato (Bonny Best), relative to untreated check plants, read-out: % Control TEB (Tomato Early Blight)
# Protocol: Compounds of the invention were tested for the control of the Tomato Early Blight organism, Alternaria solani conidia. Tomato (variety Bonny Best) seedlings of 6 to 7 weeks old were used. The tomato plants were sprayed with a 250-ppm solution of the test compound in an acetone-and-water solution containing a small amount of a non-ionic emulsifier. The sprayed plants were inoculated one day later with the organism, placed in the environmental chamber and incubated at 66°-68° F. and 100% relative humidity for 24 hours. Following the incubation, the plants were maintained in the greenhouse for about 12 days. Percent disease control was based on the percent disease development on untreated check plants.
# [4] = test system: Plasmapora viticola; test: Grape Downy Mildew control (detached grape leaves); assay type: in vivo; conditions: detached Vitis vinifera cultivar Emperor leaves; % disease reduction relative to untreated check plants; concentration not given
# Protocol: Grape Downy Mildew Control
# The compounds of the invention were tested for the control of the grape downy mildew organism Plasmapora viticola. Detached leaves, between 70 and 85 mm in diameter, of 7-week-old Vitis vinifera cultivar Emperor grape seedlings were used as hosts. The leaves were sprayed with a solution of the test compound in acetone. The sprayed leaves were dried, inoculated with a spore suspension of the organism, placed in a humid environmental chamber and incubated at 66°-68° F. and about 100% relative humidity. After incubation for 2 days, the plants were then held in a greenhouse for seven to nine days. Afterwards, the amount of disease control was determined. The percent disease control provided by a given test compound was based on the percent disease reduction relative to untreated check plants.
# [5] = test system: Rhizoctonia solani; test: Rhizoctonia mycelial inhibition test; assay type: cell-based; conditions: 500 ppm in acetone; 25° C., 24 hours; standard Difolatan; "0" assigned where greater than 1.6 micrograms/cm^2 required for 99% control
# Protocol: Compounds of the present invention were evaluated for effectiveness against Rhizoctonia solani by means of a mycelial inhibition test. This test is designed to measure the fungitoxic activity of fungicidal chemicals in terms of their degree of inhibition of mycelial growth. Each compound to be tested was dissolved in acetone to 500 ppm concentration. Paper strips were infused with the particular mycelium growth (on this case Rhizoctonia solani) by covering the paper with a potato dextrose broth culture of mycelial suspension. The papers were then placed on potato dextrose agar plates and sprayed by means of a microsprayer with the fungicidal solution. The treated paper strips were incubated at 25° C. and data taken after 24 hours. Fungicidal activity is measured by the zone of inhibited mycelial growth from the center of the paper strip. The effectiveness of the compounds tested for fungicidal activity against Rhizoctonia solani is reported in Table III in terms of the [formula] In cases where greater than 1.6 micrograms/cm^2 were required for 99% control, a value of "0" was assigned to the test compound.
# [6] = test system: Botrytis cinerea; test: Botrytis cinerea preventive control on harvested grape berries; assay type: in vivo; conditions: grape berries (Emperor)
# Protocol: EXAMPLE 15-Botrytis Cinerea Control
# Compound 1 of the invention was tested as a preventive fungicide against Botrytis cinerea on harvested mature grape berries (variety Emperor) by the following procedure: four grape bunches (trimmed to approximately 30 berries) were sprayed with a solution of the test compound in a solution of water, acetone and a small amount of a non-ionic emulsifier. The sprayed grapes were inoculated approximately one day later with 2- to 3-week-old culture of Botrytis cinerea grown on potato dextrose agar plates. The rate of disease incidence was determined 5-10 days after inoculation, when disease symptoms are fully evident on non-treated check grapes. Infection is determined by actual count of the number of infected berries. The percent disease control provided by a test compound was calculated from the percentage disease reduction based on the non-treated check grapes.
SMILES,pest or weed control at 250 µg/mL [1] [%],% Control CLB (Celery Late Blight) [2] [%],pest or weed control at 250 µg/mL [3] [%],% Control Grape DM (Grape Downy Mildew) [4] [%],% Control Rhizoc (Rhizoctonia) [5] [%],Botrytis Prevention (% Control) ([6]; 40 ppm) [%],Botrytis Prevention (% Control) ([6]; 100 ppm) [%],Botrytis Prevention (% Control) ([6]; 250 ppm) [%]
"CC(C)(C)SC=C1CC(=O)N(c2cc(Cl)cc(Cl)c2)C1=O [Compound 14, N-3,5-dichlorophenyl-2-t-butylthiomethenylsuccinimide]",67,57,96,42,0,–,–,–
"C=CCS(=O)(=O)CC1CC(=O)N(c2cc(Cl)cc(Cl)c2)C1=O (centres unmarked) [Compound 9, N-3,5-dichlorophenyl-2-allylsulfonylmethylsuccinimide]",25,50,63,57,80,–,–,–
"COC(=O)CSCC1CC(=O)N(c2cc(Cl)cc(Cl)c2)C1=O (centres unmarked) [Compound 6, N-3,5-dichlorophenyl-2-methoxycarbonylmethylthiomethylsuccinimide]",39,50,80,18,0,–,–,–
"CCOC(=O)CSCC1CC(=O)N(c2cc(Cl)cc(Cl)c2)C1=O (centres unmarked) [Compound 4, N-3,5-dichlorophenyl-2-ethoxycarbonylmethylthiomethylsuccinimide]",84,–,0,0,0,–,–,–
"CCSC=C1CC(=O)N(c2cc(Cl)cc(Cl)c2)C1=O [Compound 13, N-3,5-dichlorophenyl-2-ethylthiomethenylsuccinimide]",0,0,94,35,0,–,–,–
"COC(=O)CS(=O)(=O)CC1CC(=O)N(c2cc(Cl)cc(Cl)c2)C1=O (centres unmarked) [Compound 1, N-3,5-dichlorophenyl-2-methoxycarbonylmethylsulfonylmethylsuccinimide]",11,57,89,81,0,58,52,58
C=C(Cl)CS(=O)(=O)CC1CC(=O)N(c2cc(Cl)cc(Cl)c2)C1=O (centres unmarked) [Compound 10],29,50,83,18,91,–,–,–
"CC(C)(C)S(=O)(=O)C=C1CC(=O)N(c2cc(Cl)cc(Cl)c2)C1=O [Compound 11, N-3,5-dichlorophenyl-2-t-butylsulfonylmethenylsuccinimide]",6,0,0,8,0,–,–,–
"CCOC(=O)CS(=O)(=O)CC1CC(=O)N(c2cc(Cl)cc(Cl)c2)C1=O (centres unmarked) [Compound 3, N-3,5-dichlorophenyl-2-ethoxycarbonylmethylsulfonylmethylsuccinimide]",93,–,85,23,78,–,–,–
"CC(=O)SCC1CC(=O)N(c2cc(Cl)cc(Cl)c2)C1=O (centres unmarked) [Compound 5, N-3,5-dichlorophenyl-2-thioacetylmethylsuccinimide]",0,0,57,23,0,–,–,–
"O=C1CC(=CSc2ccccc2)C(=O)N1c1cc(Cl)cc(Cl)c1 [Compound 12, N-3,5-dichlorophenyl-2-phenylthiomethenylsuccinimide]",21,0,0,0,0,–,–,–
"O=C1CC(C2SCCS2)C(=O)N1c1cc(Cl)cc(Cl)c1 (centres unmarked) [Compound 8, N-3,5-dichlorophenyl-2-formylsuccinimide-2-dithioketal]",89,29,98,18,30,–,–,–
COC(=O)CCSCC1CC(=O)N(c2cc(Cl)cc(Cl)c2)C1=O (centres unmarked) [Compound 7],21,0,89,97,0,–,–,–
COC(=O)CCS(=O)(=O)CC1CC(=O)N(c2cc(Cl)cc(Cl)c2)C1=O (centres unmarked) [Compound 2],23,45,96,71,0,–,–,–
